Source: paper PMC12569736 (Journal of Cosmetic Dermatology, 2025)

Experiments:
[1] = system: LPS‐stimulated RAW264.7 cells; assay: RT‐qPCR of inflammatory cytokines in LPS‐stimulated RAW264.7 cells; format: cell-based, mouse; conditions: 3, 10 or 30 μM pretreatment 2 h, then 100 ng/mL LPS 16 h, vs LPS group
Experimental: RAW264.7 cells were treated with KT‐939 at concentrations of 3, 10, or 30 μM and incubated for 2 h. After pretreatment, cells were stimulated with 100 ng/mL LPS for an additional 16 h. Total RNA was extracted using the MiniBEST RNA Extraction Kit (Takara Bio) per the manufacturer's protocol. Reverse transcription and SYBR Green‐based qPCR were performed with ABScript II One Step RT‐qPCR Kit (Abclonal). RT‐PCR primer sequences were as follows: (Mouse) TNF‐α sense: 5‐[…]‐3, antisense: 5‐[…]‐3; (Mouse) IL‐6 sense: 5‐[…]‐3, antisense: 5‐[…]‐3; (Mouse) IL‐1α sense: 5‐[…]‐3, antisense: 5‐[…]‐3; (Mouse) GAPDH sense: 5‐[…]‐3, antisense: 5‐[…]‐3; Expression of target gene mRNA was normalized to GAPDH, and results were analyzed using GraphPad software.
RAW264.7 cells were pre‐treated with different concentrations of KT‐939, followed by the addition of 100 ng/mL LPS for 16 h. mRNA levels of TNF‐α, IL‐6, and IL‐1α were quantified by RT‐PCR and compared to the LPS‐induced group (*p < 0.05, **p < 0.01, ***p < 0.001).

[2] = system: NRF2/ARE signaling pathway; assay: NRF2/ARE‐luciferase reporter assay in HEK293T cells; format: cell-based, human; conditions: 10 µM, 48 h, relative to DMSO
Experimental: The NRF2‐responsive firefly luciferase reporter plasmid (pGL4.27_ARE NRF2‐SPE) and Renilla luciferase control plasmid (pRL‐TK) were co‐transfected into HEK293T cells using Lipofectamine 2000. After 24 h, transfected cells were seeded into 96‐well plates and incubated overnight. Test compounds (10 μM) were added, and cells were incubated for an additional 48 h. Luciferase activities were measured using the Dual‐Lumi Luciferase Reporter Assay Kit (Beyotime Biotechnology), following the manufacturer's instructions.
FIGURE 6 KT‐939 activates the ARE/NRF2 signaling pathway. HEK293T cells transfected with an NRF2‐responsive firefly luciferase reporter were treated with 10 µM of KT‐939, hydroquinone (Hq), 377, or 4‐butylresorcinol for 48 h. Luminescence signals were normalized to renilla and expressed relative to DMSO control. *** p < 0.001 vs DMSO.

HaCaT cells = assay: Cell viability, HaCaT; format: cell-based, human; conditions: 72 h, up to 50 μM
Experimental: B16‐F10, MNT‐1, and HaCaT cells (5000 cells/well) were seeded into 96‐well plates and incubated overnight. Culture medium (50 μL) containing varying concentrations of KT‐939 was added to each well, and cells were incubated for 72 h. Cell viability was assessed using the Cell Viability Assay Kit (Vazyme Biotech), following the manufacturer's instructions. Luminescence was measured using a Synergy H1 Hybrid Reader. DMSO‐treated cells served as the control, and survival rates were calculated and analyzed with GraphPad software.
B16‐F10, MNT‐1, and HaCaT cells were incubated with different concentrations of KT‐939 for 72 h. Cell viability was assessed and normalized to the DMSO‐treated control group.

CC1(C(=O)Nc2nc(-c3ccc(O)cc3O)cs2)COC1 [KT‐939, N‐(4‐(2,4‐Dihydroxyphenyl) Thiazol‐2‐yl)‐3‐Methyloxetane‐3‐Carboxamide]
IL‐1α mRNA level [1]: dose‐dependent decrease | IL‐6 mRNA level [1]: dose‐dependent decrease | TNF‐α mRNA level [1]: dose‐dependent decrease | NRF2 signaling pathway activation (luciferase reporter) [2]: significantly enhanced the NRF2 signaling pathway | cytotoxicity (cell viability) (HaCaT cells): no significant cytotoxicity
